Test results as given in ChEMBL document CHEMBL4177611, “Discovery of aminocyclohexene analogues as selective and orally bioavailable hNav1.7 inhibitors for analgesia” (Bioorg Med Chem Lett, 2017).
Activity calls are given as the source filed them.

Legend:
Cytochrome P450 1A2 = target: T1, Cytochrome P450 1A2 (Homo sapiens, UniProt P05177)
T1 sequence (P05177 whole entry): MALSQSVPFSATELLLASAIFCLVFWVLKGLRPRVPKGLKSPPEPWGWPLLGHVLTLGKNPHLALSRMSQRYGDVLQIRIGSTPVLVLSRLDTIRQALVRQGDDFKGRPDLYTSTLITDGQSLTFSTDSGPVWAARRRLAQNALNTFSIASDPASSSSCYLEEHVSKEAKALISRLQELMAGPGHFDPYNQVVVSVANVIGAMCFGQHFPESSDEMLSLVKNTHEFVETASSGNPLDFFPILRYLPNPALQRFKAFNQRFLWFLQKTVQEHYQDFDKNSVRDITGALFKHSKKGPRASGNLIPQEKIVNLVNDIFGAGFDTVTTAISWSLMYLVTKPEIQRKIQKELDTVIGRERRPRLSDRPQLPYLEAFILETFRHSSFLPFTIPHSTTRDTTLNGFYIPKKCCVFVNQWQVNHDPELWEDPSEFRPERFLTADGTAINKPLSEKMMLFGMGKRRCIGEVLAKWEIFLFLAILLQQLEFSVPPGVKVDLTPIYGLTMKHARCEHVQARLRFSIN

Cytochrome P450 2C9 = Cytochrome P450 2C9 (Homo sapiens, UniProt P11712)
Cytochrome P450 2D6 = Cytochrome P450 2D6 (Homo sapiens, UniProt P10635)
[1] = AUC in Sprague-Dawley rat at 2 mg/kg administered as single dose via oral gavage by LC-MS/MS analysis; format: ADME, organism-based; conditions: in vivo
Cytochrome P450 2C19 = Cytochrome P450 2C19 (Homo sapiens, UniProt P33261)
[2] = Volume of distribution at steady state in Sprague-Dawley rat administered as single iv bolus by LC-MS/MS analysis; format: ADME, organism-based; conditions: in vivo, read-out: Vdss
Cytochrome P450 3A4 = Cytochrome P450 3A4 (Homo sapiens, UniProt P08684)
[3] = Oral bioavailability in Sprague-Dawley rat at 2 mg/kg administered as single dose via gavage by LC-MS/MS analysis; format: ADME, organism-based; conditions: in vivo
[4] = target: Sodium channel protein type 9 subunit alpha (Homo sapiens, UniProt Q15858); experiment: Inhibition of human Nav1.7 expressed in CHO-K1 cells at -120 mV holding potential incubated over 5 mins measured at 15 secs interval by Qpatch clamp assay; format: cell-based
[5] = Clearance in Sprague-Dawley rat administered as single iv bolus by LC-MS/MS analysis; format: ADME, organism-based; conditions: in vivo
[6] = Ratio of total drug level in iv dosed rat brain to plasma measured 2 hrs post dose; format: ADME, organism-based; conditions: read-out: BPR
in vitro [7] = conditions: human, Caco-2
in vitro [8] = conditions: human, Caco-2; remark: listed apart in the source
Homo sapiens [9] = organism: Homo sapiens; experiment: Selectivity ratio of IC50 for human Nav1.5 expressed in HEK293 cells to IC50 for human Nav1.7 expressed in CHO-K1 cells; format: cell-based
Rattus norvegicus [10] = experiment: Antinociceptive activity in Sprague-Dawley rat formalin-induced nociception model assessed as inhibition of formalin-induced flinches in phase 2 at 30 mg/kg, po administered via oral gavage 60 mins before formalin challenge measured for 1 hr post dose; format: functional, organism-based
Rattus norvegicus [11] = experiment: Antiallodynic activity in Sprague-Dawley rat spinal nerve ligation model assessed as reduction in mechanical allodynia by measuring paw withdrawal threshold at 30 mg/kg, po measured at 1 to 2 hrs post dose; format: functional, organism-based
Rattus norvegicus [12] = experiment: Antiallodynic activity in Sprague-Dawley rat spinal nerve ligation model assessed as reduction in mechanical allodynia by measuring paw withdrawal threshold at 100 mg/kg, po measured at 1 to 2 hrs post dose; format: functional, organism-based
Rattus norvegicus [13] = experiment: Antinociceptive activity in Sprague-Dawley rat formalin-induced nociception model assessed as inhibition of formalin-induced flinches in phase 1 at 30 mg/kg, po administered via oral gavage 60 mins before formalin challenge measured for 1 hr post dose; format: functional, organism-based
Homo sapiens [14] = organism: Homo sapiens; experiment: Selectivity ratio of IC50 for human Nav1.4 to IC50 for human Nav1.7 expressed in CHO-K1 cells; format: cell-based
[15] = Oral bioavailability in Sprague-Dawley rat at 10 mg/kg administered as single dose via gavage by LC-MS/MS analysis; format: ADME, organism-based; conditions: in vivo
[16] = AUC in Sprague-Dawley rat at 10 mg/kg administered as single dose via oral gavage by LC-MS/MS analysis; format: ADME, organism-based; conditions: in vivo

Cytochrome P450 3A4, sequence (P08684 whole entry): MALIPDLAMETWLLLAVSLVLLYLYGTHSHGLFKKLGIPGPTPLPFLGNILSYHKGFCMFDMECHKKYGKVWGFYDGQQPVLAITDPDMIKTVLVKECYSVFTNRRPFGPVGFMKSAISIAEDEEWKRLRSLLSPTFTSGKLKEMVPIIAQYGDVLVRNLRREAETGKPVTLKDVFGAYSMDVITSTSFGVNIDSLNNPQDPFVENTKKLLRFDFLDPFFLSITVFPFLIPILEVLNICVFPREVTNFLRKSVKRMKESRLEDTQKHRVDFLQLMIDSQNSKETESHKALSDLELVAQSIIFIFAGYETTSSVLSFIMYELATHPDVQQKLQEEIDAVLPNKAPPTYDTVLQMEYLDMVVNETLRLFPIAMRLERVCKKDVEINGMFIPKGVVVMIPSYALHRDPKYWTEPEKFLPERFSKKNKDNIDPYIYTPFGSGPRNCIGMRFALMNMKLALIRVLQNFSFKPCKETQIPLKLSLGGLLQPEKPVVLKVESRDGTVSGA
Sodium channel protein type 9 subunit alpha, sequence (Q15858 whole entry): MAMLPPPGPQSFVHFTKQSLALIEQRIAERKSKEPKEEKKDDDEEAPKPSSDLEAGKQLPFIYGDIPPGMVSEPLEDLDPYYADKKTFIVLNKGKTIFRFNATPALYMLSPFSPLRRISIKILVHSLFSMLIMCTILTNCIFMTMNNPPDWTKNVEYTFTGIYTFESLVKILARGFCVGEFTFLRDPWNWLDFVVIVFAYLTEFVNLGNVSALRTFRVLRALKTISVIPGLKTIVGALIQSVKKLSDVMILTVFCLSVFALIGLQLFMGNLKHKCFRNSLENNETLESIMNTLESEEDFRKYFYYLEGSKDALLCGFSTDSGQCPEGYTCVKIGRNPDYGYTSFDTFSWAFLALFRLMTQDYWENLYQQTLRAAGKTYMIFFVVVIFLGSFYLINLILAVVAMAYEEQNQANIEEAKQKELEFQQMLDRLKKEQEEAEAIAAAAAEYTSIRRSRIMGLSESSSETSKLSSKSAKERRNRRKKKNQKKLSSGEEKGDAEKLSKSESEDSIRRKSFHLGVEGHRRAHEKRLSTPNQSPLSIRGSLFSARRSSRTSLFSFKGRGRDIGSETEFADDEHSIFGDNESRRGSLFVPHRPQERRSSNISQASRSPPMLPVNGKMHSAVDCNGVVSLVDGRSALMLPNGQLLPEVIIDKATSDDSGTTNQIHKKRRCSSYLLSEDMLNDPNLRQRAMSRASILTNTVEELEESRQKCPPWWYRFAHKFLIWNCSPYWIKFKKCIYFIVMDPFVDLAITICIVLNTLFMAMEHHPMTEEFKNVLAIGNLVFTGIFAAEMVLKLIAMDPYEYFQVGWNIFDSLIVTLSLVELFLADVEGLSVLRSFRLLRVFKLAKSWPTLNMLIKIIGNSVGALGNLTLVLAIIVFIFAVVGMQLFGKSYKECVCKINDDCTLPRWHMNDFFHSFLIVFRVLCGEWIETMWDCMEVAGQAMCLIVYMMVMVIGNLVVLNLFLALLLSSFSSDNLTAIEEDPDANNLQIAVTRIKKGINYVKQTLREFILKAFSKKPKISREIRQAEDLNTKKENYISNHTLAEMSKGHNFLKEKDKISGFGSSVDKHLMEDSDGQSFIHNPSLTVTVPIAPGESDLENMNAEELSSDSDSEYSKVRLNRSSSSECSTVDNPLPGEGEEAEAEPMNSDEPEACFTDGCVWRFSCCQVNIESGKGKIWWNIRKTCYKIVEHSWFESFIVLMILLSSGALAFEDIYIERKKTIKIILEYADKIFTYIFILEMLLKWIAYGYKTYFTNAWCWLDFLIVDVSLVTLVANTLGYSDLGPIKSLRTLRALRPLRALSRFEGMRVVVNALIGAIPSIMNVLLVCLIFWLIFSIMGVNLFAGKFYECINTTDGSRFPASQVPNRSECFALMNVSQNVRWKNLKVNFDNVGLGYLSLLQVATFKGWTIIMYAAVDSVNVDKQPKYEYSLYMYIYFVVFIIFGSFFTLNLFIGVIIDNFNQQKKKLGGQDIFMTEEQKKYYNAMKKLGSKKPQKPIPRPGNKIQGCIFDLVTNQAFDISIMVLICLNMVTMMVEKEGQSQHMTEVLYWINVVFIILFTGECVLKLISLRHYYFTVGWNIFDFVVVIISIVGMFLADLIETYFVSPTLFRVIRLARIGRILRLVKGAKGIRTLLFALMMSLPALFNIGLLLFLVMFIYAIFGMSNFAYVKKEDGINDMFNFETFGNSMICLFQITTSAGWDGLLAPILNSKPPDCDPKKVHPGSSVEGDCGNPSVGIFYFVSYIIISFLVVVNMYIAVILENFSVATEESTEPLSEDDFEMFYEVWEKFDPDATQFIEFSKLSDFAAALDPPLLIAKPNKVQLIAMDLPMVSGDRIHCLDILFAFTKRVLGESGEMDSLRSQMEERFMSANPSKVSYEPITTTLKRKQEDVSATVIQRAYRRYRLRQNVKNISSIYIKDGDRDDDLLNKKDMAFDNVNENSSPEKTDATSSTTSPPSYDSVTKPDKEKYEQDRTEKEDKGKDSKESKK
Cytochrome P450 2D6, sequence (P10635 whole entry): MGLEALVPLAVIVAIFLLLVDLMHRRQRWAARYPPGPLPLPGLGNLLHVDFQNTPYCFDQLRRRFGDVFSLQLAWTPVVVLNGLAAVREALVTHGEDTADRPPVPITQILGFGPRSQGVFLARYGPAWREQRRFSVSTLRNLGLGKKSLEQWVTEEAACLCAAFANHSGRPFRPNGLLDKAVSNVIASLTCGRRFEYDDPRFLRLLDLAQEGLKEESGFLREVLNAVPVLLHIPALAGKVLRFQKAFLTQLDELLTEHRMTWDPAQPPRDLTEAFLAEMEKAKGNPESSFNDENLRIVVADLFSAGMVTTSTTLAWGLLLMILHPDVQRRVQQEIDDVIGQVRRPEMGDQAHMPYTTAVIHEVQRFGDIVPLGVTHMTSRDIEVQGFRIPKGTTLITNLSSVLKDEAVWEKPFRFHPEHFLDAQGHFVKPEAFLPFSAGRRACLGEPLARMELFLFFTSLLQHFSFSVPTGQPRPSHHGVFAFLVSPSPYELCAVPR
Cytochrome P450 2C19, sequence (P33261 whole entry): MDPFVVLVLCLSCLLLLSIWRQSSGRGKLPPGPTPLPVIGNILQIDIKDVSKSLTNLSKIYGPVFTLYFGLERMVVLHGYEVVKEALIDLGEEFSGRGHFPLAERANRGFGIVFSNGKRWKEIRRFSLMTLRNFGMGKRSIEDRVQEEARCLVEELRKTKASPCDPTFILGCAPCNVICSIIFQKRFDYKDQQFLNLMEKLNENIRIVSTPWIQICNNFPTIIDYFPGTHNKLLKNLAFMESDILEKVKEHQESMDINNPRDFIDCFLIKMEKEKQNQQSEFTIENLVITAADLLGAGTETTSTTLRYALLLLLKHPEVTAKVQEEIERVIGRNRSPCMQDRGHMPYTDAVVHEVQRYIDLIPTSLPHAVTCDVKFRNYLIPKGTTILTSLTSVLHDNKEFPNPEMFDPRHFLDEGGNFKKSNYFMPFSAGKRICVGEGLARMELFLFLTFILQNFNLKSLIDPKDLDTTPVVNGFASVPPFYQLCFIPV
Cytochrome P450 2C9, sequence (P11712 whole entry): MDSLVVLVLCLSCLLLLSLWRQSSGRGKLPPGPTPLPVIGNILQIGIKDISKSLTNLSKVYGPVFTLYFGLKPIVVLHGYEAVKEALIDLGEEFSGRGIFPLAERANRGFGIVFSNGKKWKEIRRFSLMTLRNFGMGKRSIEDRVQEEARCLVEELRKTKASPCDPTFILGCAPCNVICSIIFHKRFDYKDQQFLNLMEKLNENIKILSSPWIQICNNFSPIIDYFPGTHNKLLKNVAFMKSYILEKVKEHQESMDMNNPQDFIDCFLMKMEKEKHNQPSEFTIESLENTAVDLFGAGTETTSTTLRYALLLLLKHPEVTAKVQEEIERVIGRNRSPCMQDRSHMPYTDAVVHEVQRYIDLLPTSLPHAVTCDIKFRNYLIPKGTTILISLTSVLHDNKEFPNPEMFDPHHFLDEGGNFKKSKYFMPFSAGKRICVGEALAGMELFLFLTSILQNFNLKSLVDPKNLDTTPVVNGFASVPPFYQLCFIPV

## Cl.N[C@@H]1CCC=C(c2ccc(F)cc2)[C@H]1CNc1cc(F)c(S(=O)(=O)Nc2nccs2)cc1Cl
Cytochrome P450 1A2
  IC50: > 50000 nM
Cytochrome P450 2C9
  IC50: 500 nM
Cytochrome P450 2D6
  IC50: 42600 nM
[1]
  AUC: 0.04 µM·h
Cytochrome P450 2C19
  IC50: 5600 nM
[2]
  Vd: 4.24 L/kg
Cytochrome P450 3A4
  IC50: > 50000 nM
[3]
  bioavailability: 3%
[4]
  IC50: 33 nM
[5]
  clearance: 44.2 mL/min/kg

## CN(C)[C@@H]1CCC=C(c2ccc(F)cc2)[C@H]1COc1cc(F)c(S(=O)(=O)Nc2cscn2)cc1Cl.Cl (racemic)
[6]
  Kp at 2 h: 0.6
In vitro [7]
  Papp A→B at 2 h, 2 µM: 10 ×10⁻⁶ cm/s
[4]
  IC50: 14 nM
In vitro [8]
  efflux ratio at 2 h, 2 µM: 1.8

## CN[C@@H]1CCC=C(c2ccc(F)cc2)[C@H]1COc1cc(F)c(S(=O)(=O)Nc2cscn2)cc1Cl.Cl (racemic)
[6]
  Kp at 2 h: 0.04
In vitro [7]
  Papp A→B at 2 h, 2 µM: 0.2 ×10⁻⁶ cm/s
[4]
  IC50: 170 nM
In vitro [8]
  efflux ratio at 2 h, 2 µM: 127

## Cl.N[C@@H]1CCC=C(c2ccc(F)cc2)[C@H]1CSc1cc(F)c(S(=O)(=O)Nc2nccs2)cc1Cl
Cytochrome P450 1A2
  IC50: > 50000 nM
Cytochrome P450 2C9
  IC50: 100 nM
Cytochrome P450 2D6
  IC50: 18000 nM
[1]
  AUC: 0.17 µM·h
Cytochrome P450 2C19
  IC50: 3300 nM
[2]
  Vd: 6.05 L/kg
Cytochrome P450 3A4
  IC50: 5100 nM
[3]
  bioavailability: 14%
[4]
  IC50: 5 nM
[5]
  clearance: 46.5 mL/min/kg

## CC(C)N[C@@H]1CCC=C(c2ccc(F)cc2)[C@H]1COc1cc(F)c(S(=O)(=O)Nc2cscn2)cc1Cl.Cl (racemic)
[6]
  Kp at 2 h: 0.08
In vitro [7]
  Papp A→B at 2 h, 2 µM: 1.1 ×10⁻⁶ cm/s
[4]
  IC50: 94 nM
In vitro [8]
  efflux ratio at 2 h, 2 µM: 37

## O=S(=O)(Nc1cscn1)c1cc(Cl)c(OC[C@@H]2C(c3ccc(F)cc3)=CCC[C@H]2n2ccnc2)cc1F (racemic)
[4]
  IC50: 2340 nM

## O=S(=O)(Nc1cscn1)c1cc(Cl)c(OC[C@@H]2C(c3ccc(F)cc3)=CCC[C@H]2n2cnnc2)cc1F (racemic)
[4]
  IC50: 770 nM

## CCN[C@@H]1CCC=C(c2ccc(F)cc2)[C@H]1COc1cc(F)c(S(=O)(=O)Nc2cscn2)cc1Cl.Cl (racemic)
[6]
  Kp at 2 h: 0.08
In vitro [7]
  Papp A→B at 2 h, 2 µM: 0.4 ×10⁻⁶ cm/s
[4]
  IC50: 59 nM
In vitro [8]
  efflux ratio at 2 h, 2 µM: 70

## O=S(=O)(Nc1cscn1)c1cc(Cl)c(OC[C@@H]2C(c3ccc(F)cc3)=CCC[C@H]2N2CCC2)cc1F (racemic)
[4]
  IC50: 1150 nM

## CCN[C@@H]1CCC=C(c2ccc(F)cc2)[C@H]1CSc1cc(F)c(S(=O)(=O)Nc2cscn2)cc1Cl
[4]
  IC50: 100 nM

## CCN[C@@H]1CCC=C(c2ccc(F)cc2)[C@H]1CNc1cc(F)c(S(=O)(=O)Nc2nccs2)cc1Cl.Cl
Cytochrome P450 1A2
  IC50: > 50000 nM
Cytochrome P450 2C9
  IC50: 200 nM
Cytochrome P450 2D6
  IC50: 14100 nM
[1]
  AUC: 0.29 µM·h
Cytochrome P450 2C19
  IC50: 2100 nM
[2]
  Vd: 3.07 L/kg
Cytochrome P450 3A4
  IC50: 16500 nM
[3]
  bioavailability: 14%
[4]
  IC50: 6 nM
[5]
  clearance: 27.5 mL/min/kg

## CCN[C@@H]1CCC=C(c2ccc(F)cc2)[C@H]1COc1cc(F)c(S(=O)(=O)Nc2cscn2)cc1Cl
Homo sapiens [9]
  Ratio IC50: > 30
Rattus norvegicus [10]
  inhibition: Active
Rattus norvegicus [11]
  Activity: inactive
Rattus norvegicus [12]
  Activity: Active
Rattus norvegicus [13]
  inhibition: inactive
Homo sapiens [14]
  Ratio IC50: > 30

## Cl.N[C@@H]1CCC=C(c2ccc(F)cc2)[C@H]1CSc1cc(F)c(S(=O)(=O)Nc2cscn2)cc1Cl
[1]
  AUC: 0.62 µM·h
[2]
  Vd: 3.22 L/kg
[3]
  bioavailability: 27%
[4]
  IC50: 59 nM
[5]
  clearance: 26.1 mL/min/kg

## CCN(CC)[C@@H]1CCC=C(c2ccc(F)cc2)[C@H]1COc1cc(F)c(S(=O)(=O)Nc2cscn2)cc1Cl (racemic)
[4]
  IC50: 310 nM

## CCN[C@@H]1CCC=C(c2ccc(F)cc2)[C@H]1CNc1cc(F)c(S(=O)(=O)Nc2cscn2)cc1Cl
[4]
  IC50: 200 nM

## CC(=O)N[C@@H]1CCC=C(c2ccc(F)cc2)[C@H]1COc1cc(F)c(S(=O)(=O)Nc2cscn2)cc1Cl (racemic)
[4]
  IC50: 510 nM

## CCN[C@@H]1CCC=C(c2ccc(F)cc2)[C@H]1COc1cc(F)c(S(=O)(=O)Nc2nccs2)cc1Cl.Cl (racemic)
Cytochrome P450 1A2
  IC50: > 50000 nM
Cytochrome P450 2C9
  IC50: 200 nM
Cytochrome P450 2D6
  IC50: 4500 nM
[15]
  bioavailability: 3%
Cytochrome P450 2C19
  IC50: 1500 nM
[16]
  AUC: 0.12 µM·h
[2]
  Vd: 6.21 L/kg
Cytochrome P450 3A4
  IC50: 21600 nM
[4]
  IC50: 48 nM
[5]
  clearance: 66.6 mL/min/kg

## Cl.N[C@@H]1CCC=C(c2ccc(F)cc2)[C@H]1COc1cc(F)c(S(=O)(=O)Nc2nccs2)cc1Cl (racemic)
Cytochrome P450 1A2
  IC50: > 50000 nM
Cytochrome P450 2C9
  IC50: 100 nM
Cytochrome P450 2D6
  IC50: 18000 nM
[15]
  bioavailability: 0.3%
Cytochrome P450 2C19
  IC50: 8000 nM
[16]
  AUC: 0.03 µM·h
[2]
  Vd: 3.26 L/kg
Cytochrome P450 3A4
  IC50: > 50000 nM
[4]
  IC50: 2 nM
[5]
  clearance: 29 mL/min/kg
